Assay results as given in patent US7368115B2, “Method of enhancing neural stem cell proliferation, differentiation, and survival using pituitary adenylate cyclase activating polypeptide (PACAP)” (Stem Cell Therapeutics Inc., priority 2002, dated 2008).

Legend:
Akt = Akt phosphorylation in cultured neural stem cells (Western blot); type: cell-based; settings: within 1 to 2 hours, data not shown
Experimental: (§1) To examine the possible mechanisms of PACAP action on neural stem cells, the effects of PACAP on Akt and STAT5 phosphorylation were investigated. Immunoblots were performed with anti-STAT5 (1:1000, Santa Cruz Biotechnology), anti-phospho-STAT5 (1:1000; Cell Signaling Technology), anti-Akt and anti-phospho-Akt (1:1000; Cell Signaling Technology). […] PACAP also stimulated STAT5 phosphorylation, which was previously shown to be important in neural stem cell neurogenesis. The effects of PACAP on Akt and STAT5 phosphorylation may be critical in mediating actions on neural stem cell survival and neurogenesis.

[1] = tested on: E14 ganglionic eminence neural stem cells; assay: Primary neurosphere number from dissociated E14 ganglionic eminences (neural stem cell survival); type: cell-based, mouse
Excerpt: FIG. 1. Pituitary adenylate cyclase-activating polypeptide (PACAP) enhanced neural stem cell survival in vitro. Embryonic day 14 ganglionic eminences (E14 GE) were dissociated and plated at 150 cells/ml in the indicated growth factor conditions. The number of neurospheres was counted after 10 days. Data are expressed relative to the number obtained with epidermal growth factor (EGF) alone (100%). PACAP increased the number of neurospheres obtained with either EGF or fibroblast growth factor (FGF)+heparan sulfate (HS). […] (* p<0.05, n=3).
Cell Culture: Primary embryonic neural stem cells were isolated from E14 ganglionic eminence as previously described (Reynolds and Weiss, 1992). Neurospheres were grown in the presence of EGF (20 ng/ml) or FGF-2 (20 ng/ml)+heparan sulfate (2 μg/ml) growth medium. Passaged neural stem cells were grown at a clonal density (150 cells/ml).
E14 GE were dissociated and plated at 150 cells/ml in EGF, EGF+PACAP, FGF+HS, or FGF+HS+PACAP. The number of neurospheres were counted after 10 days.

[2] = Banks, 1993; cited from earlier work
[3] = tested on: embryonic rat cortical precursors; settings: Lu and DiCicco-Bloom, 1997; cited from earlier work
primary E14 neurospheres [4] = assay: In vitro neurogenesis: count of β-tubulin immunopositive neurons from neurospheres; type: cell-based, mouse
Experimental: FIG. 3. PACAP enhanced in vitro neurogenesis by neural stem cells. Primary E14 neurospheres were grown in the indicated conditions for seven days and then processed for immunocytochemistry to count the number of B-tubulin immunopositive neurons. Data were normalized to either EGF or FGF+HS alone (100%). PACAP increased the number of neurons in all conditions. (* p<0.01, n=3).
Differentiation of Neurospheres: Neurospheres were plated onto poly-L-ornithine coated coverslips in serum-free medium and subjected to immunocytochemistry after 5 days in vitro. The number of β-III tubulin-positive cells were counted.
Primary E14 neurospheres were grown in either EGF or FGF media in the presence or absence of PACAP for seven days, differentiated for five days in vitro in basal media, and then processed for immunocytochemistry to determine the number of β-tubulin immunopositive neurons. Data were normalized to those obtained with either EGF or FGF+HS alone (100%).

[5] = tested on: adult forebrain subventricular zone (SVZ); assay: In vivo proliferation in the adult subventricular zone (BrdU+ cells) after infusion into the lateral ventricle; parameters: species or system CD-1 mice; settings: human PACAP 165 μg/ml by osmotic minipump into right lateral ventricle for 6 days; relative to vehicle infused animals
Excerpt: FIG. 4. PACAP infusion stimulated increased proliferation in the adult subventricular zone (SVZ) in vivo. PACAP was infused into the lateral ventricles for six days with an osmotic minipump, followed by a series of BrdU injections. Brains were processed for immunocytochemistry. PACAP increased proliferation in the adult SVZ. (** p<0.05, n=4). […] To examine the actions of the peptide in vivo, CD-1 mice (6–7 weeks of age) were implanted with osmotic minipumps (Alzet 1007D) filled with either human PACAP (American Peptide Company, 165 μg/ml) or vehicle alone (0.9% saline containing 1 mg/ml mouse serum albumin). The cannulae were placed in the right lateral ventricle. Each animal was infused for 6 days and injected with BrdU every two hours for ten hours and killed 0.5 hours after the last injection. Brains were processed for immunohistochemistry as described previously (Shingo et al., 2001) and BrdU+cells were counted in serial sections of the SVZ.

STAT5 = STAT5 phosphorylation in cultured neural stem cells (Western blot); type: cell-based; settings: data not shown
Experimental: as §1

primary E14 neurospheres [6] = assay: Secondary neurosphere number from dissociated primary neurospheres (self-renewal); type: cell-based, mouse; settings: primary neurospheres grown with PACAP, replated in EGF or FGF+HS; normalized to growth without PACAP
Experimental: FIG. 2. PACAP increased neural stem cell self-renewal in vitro. Primary E14 neurospheres were grown in the indicated conditions, dissociated, and replated in the presence of either EGF or FGF+HS. Neurospheres were counted and data were normalized to either EGF or FGF+HS alone. PACAP increased the number of secondary neurospheres obtained with either EGF or FGF+HS. (* p<0.05, n=3).
Single Cell Dissociation Assay: Single neurospheres ([…]) were dissociated mechanically and then plated in a 96 well plate and incubated for 10 days in vitro in the presence of growth factors.
Primary E14 neurospheres were grown in the indicated conditions in FIG. 2, then dissociated and replated in the presence of either EGF or FGF+HS and the number of secondary neurospheres was counted. Data were normalized to the numbers of secondary neurospheres generated from primary neurospheres grown in the absence of PACAP.

With “PACAP: polypeptide hormone that activates adenylate cyclase; native mammalian form is 38 or 27 amino acids; human PACAP from American Peptide Company used in vivo” the “phosphorylation of Akt” value (Akt) was “rapid increase”, the “number of primary neurospheres generated in response to EGF” value ([1]; EGF+PACAP vs EGF, 150 cells/ml, counted after 10 days, lesser extent than with FGF-2) was “also increased” and the “number of primary neurospheres generated in response to FGF-2” value ([1]; FGF+HS+PACAP vs FGF+HS, 150 cells/ml, counted after 10 days, PACAP added at beginning of culture) was “significantly increased”. The “neurosphere number with delayed addition of PACAP” value ([1]; PACAP addition delayed until 5 days in vitro) was “did not increase”, the “crossing of the blood-brain-barrier” value [2] was “known to cross the blood-brain-barrier” and the mitosis [3] was “can decrease mitosis”. For the same substance, the “number of β-tubulin immunopositive neurons generated” value (primary E14 neurospheres [4]; EGF or FGF media with PACAP for seven days, differentiated five days in vitro, normalized to EGF or FGF+HS alone (100%)) was “significantly increased”, the “number of neurons generated with delayed PACAP addition” value (primary E14 neurospheres [4]; PACAP addition delayed until after five days in vitro (PACAP at 5 DIV)) was “an increase was observed” and the “number of BrdU incorporating cells in the SVZ” value [5] was “significantly increased”. The STAT5 phosphorylation (STAT5) was “stimulated” and the “number of secondary neurospheres generated by single primary neurospheres” value (primary E14 neurospheres [6]) was “significantly increased”.
